Among the data in PubChem BioAssay (NCI) are TGI values, retold here.

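Following 48 hours of exposure in 96-well plates, responses at five concentrations were used to interpolate endpoints linearly. TGI denotes the concentration required for complete inhibition of growth.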 A value given as a limit tells only on which side of the number the result lay.

Among the test systems are MALME-3M melanoma; ACHN renal; PC-3 prostate; HCT-15 colon; SR leukemia; BT-549 breast; NCI-H23 lung; NCI-H226 lung; 786-0 renal; COLO 205 colon; U251 CNS; NCI-H522 lung; KM12 colon; HOP-92 NSCLC.
Holding throughout (test): DTP human tumour cell line panel, 48 h

On to `O=S(=O)(O)c1ccc(N=Nc2ccc(N=Nc3c(O)ccc4ccccc34)cc2)cc1`, for which the TGI with MALME-3M melanoma, in the test with ACHN renal, in the test on PC-3 prostate, in the test on HCT-15 colon, in the test with SR leukemia and in the test with BT-549 breast was above 100 µM each time. For the same compound, the concentration for total growth inhibition (TGI) in the test with NCI-H23 lung, in the test with NCI-H226 lung, in the test on 786-0 renal, in the test with COLO 205 colon, in the test on U251 CNS and in the test with NCI-H522 lung was above 100 µM in each case. For the same compound, the TGI with KM12 colon and in the test on HOP-92 NSCLC was above 100 µM throughout.

Consider `Cc1ccc(NC(=S)NNC(=O)c2cc(-c3ccccc3)nc3ccccc23)cc1`, for which the TGI (in general, the concentration at which net growth stops) in the test on MALME-3M melanoma came to 34.6 µM; in the test on ACHN renal, 31.3 µM; with PC-3 prostate, 32.2 µM; with HCT-15 colon, 25.9 µM; in the test with SR leukemia, 6.72 µM; in the test on BT-549 breast, 32.7 µM. The concentration for total growth inhibition (TGI) with NCI-H23 lung worked out at 27.4 µM; in the test on NCI-H226 lung, 39.7 µM; in the test on 786-0 renal it was 26.1 µM; in the test on COLO 205 colon, 35.3 µM; in the test on U251 CNS, 20.2 µM; in the test with NCI-H522 lung, 39 µM. Also, the TGI amounted to 37.7 µM with KM12 colon and 25.8 µM with HOP-92 NSCLC.

On to `O=C(c1cc(Cl)cc(Cl)c1)N1CCN(C(=O)c2cc(Cl)cc(Cl)c2)C1=S`, for which the total growth inhibition concentration (TGI) in the test on MALME-3M melanoma came to 25.5 µM; in the test with ACHN renal it was 29.6 µM; in the test on PC-3 prostate it was 30.3 µM; with HCT-15 colon it was 31 µM; in the test on SR leukemia it was 11.3 µM; in the test on BT-549 breast, 70.8 µM. The TGI in the test with NCI-H23 lung came to 34.6 µM; with NCI-H226 lung, 49.8 µM; in the test on 786-0 renal it was 7.58 µM; in the test with COLO 205 colon, 35.2 µM; in the test on U251 CNS, 26.4 µM; in the test with NCI-H522 lung it was 25.7 µM. The TGI came out at 24.8 µM in the test on KM12 colon and 22.4 µM in the test with HOP-92 NSCLC.

Turning to `Cc1ccc(-c2cc(-c3ccc(Cl)cc3)nc(/N=C3\C(=O)N(CN4CCOCC4)c4ccc(Cl)cc43)n2)cc1`, the total growth inhibition concentration (TGI) in the test on MALME-3M melanoma was above 100 µM; with ACHN renal it was 48.5 µM; in the test on PC-3 prostate, above 100 µM; with HCT-15 colon, above 100 µM; in the test on SR leukemia, above 100 µM; in the test with BT-549 breast, above 100 µM. The concentration for total growth inhibition (TGI) in the test on NCI-H23 lung was 57.6 µM; with NCI-H226 lung, above 100 µM; with 786-0 renal it was 44.5 µM; in the test with COLO 205 colon, 49.7 µM; in the test on U251 CNS it was 36.3 µM; with NCI-H522 lung it was 36.7 µM. Besides, the TGI stood at 56.8 µM in the test on KM12 colon and 62.2 µM in the test on HOP-92 NSCLC.

As to `Cc1cc(C)nc(NS(=O)(=O)c2ccc(NNC(=O)c3cccc4c(=O)c5ccccc5[nH]c34)cc2)n1`, the TGI with MALME-3M melanoma, in the test with ACHN renal, in the test with PC-3 prostate, in the test with HCT-15 colon, in the test with SR leukemia and with BT-549 breast was above 100 µM throughout. Moreover, the TGI in the test on NCI-H23 lung, in the test on NCI-H226 lung, in the test on 786-0 renal, in the test on COLO 205 colon, in the test on U251 CNS and in the test on NCI-H522 lung was above 100 µM throughout. Moreover, the TGI with KM12 colon was above 100 µM; in the test on HOP-92 NSCLC, 73.8 µM.

On to `COc1ccc(OC)c(N2C(=O)CSC2c2cc(OC)c(OC)c(OC)c2)c1` (stereo unspecified), for which the total growth inhibition concentration (TGI) in the test on MALME-3M melanoma, with ACHN renal, in the test with PC-3 prostate, in the test with HCT-15 colon, in the test with SR leukemia and with BT-549 breast was above 100 µM throughout. Also, the TGI with NCI-H23 lung, in the test on NCI-H226 lung, in the test on 786-0 renal, with COLO 205 colon, with U251 CNS and in the test on NCI-H522 lung was above 100 µM each time. The total growth inhibition concentration (TGI) in the test with KM12 colon and in the test with HOP-92 NSCLC was above 100 µM in each case.

On to `CC1(C)OC(=C(C#N)C#N)C(C#N)=C1/C=C/c1ccncc1`, for which the TGI with MALME-3M melanoma is 6.31 µM; in the test with ACHN renal, 3.39 µM; in the test on PC-3 prostate it was 4.62 µM; in the test with HCT-15 colon, 3.79 µM; in the test on SR leukemia, 4.74 µM; with BT-549 breast it was 3.18 µM. The TGI in the test with NCI-H23 lung amounted to 5.56 µM; in the test with NCI-H226 lung it was 4.65 µM; in the test with 786-0 renal, 3.66 µM; in the test on COLO 205 colon, 3.27 µM; in the test with U251 CNS, 3.65 µM; in the test with NCI-H522 lung, 4.12 µM. The TGI in the test on KM12 colon worked out at 9.14 µM; in the test with HOP-92 NSCLC, 5.17 µM.

For the compound `O=C1NN=C2C=C(c3ccc(Cl)cc3)CC(c3cccc(Cl)c3)C12` (stereo unspecified), the total growth inhibition concentration (TGI) in the test with MALME-3M melanoma was above 100 µM; in the test on ACHN renal it was 48.2 µM; in the test on PC-3 prostate, above 100 µM; in the test with HCT-15 colon, 32.8 µM; in the test on SR leukemia it was 41.7 µM; with BT-549 breast it was above 100 µM. Also, the total growth inhibition concentration (TGI) was above 100 µM with NCI-H23 lung; 60.6 µM in the test with NCI-H226 lung; 62.8 µM in the test on 786-0 renal; 35.8 µM in the test with COLO 205 colon; 39.9 µM in the test with U251 CNS; 42.8 µM with NCI-H522 lung. Further, the concentration for total growth inhibition (TGI) in the test with KM12 colon was above 100 µM; in the test with HOP-92 NSCLC it was 50.9 µM.

Regarding `Nc1nc2c(ncn2Cc2ccc(CO)cc2)c(=O)[nH]1`, the TGI with MALME-3M melanoma, in the test with ACHN renal, in the test with PC-3 prostate, with HCT-15 colon, with SR leukemia and with BT-549 breast was above 100 µM each time. Besides, the TGI with NCI-H23 lung, in the test with NCI-H226 lung, in the test with 786-0 renal, in the test on COLO 205 colon, in the test on U251 CNS and in the test with NCI-H522 lung was above 100 µM in each case. In addition, the total growth inhibition concentration (TGI) in the test with KM12 colon and in the test with HOP-92 NSCLC was above 100 µM throughout.

On to `COc1cc(C2SCC(=O)N2c2ccc(Cl)c(Cl)c2)cc(OC)c1OC` (stereo unspecified), for which the TGI is above 100 µM in the test with MALME-3M melanoma; above 100 µM in the test on ACHN renal; above 100 µM in the test on PC-3 prostate; above 100 µM in the test on HCT-15 colon; 83.8 µM in the test on SR leukemia; 98 µM in the test on BT-549 breast. Besides, the TGI is above 100 µM with NCI-H23 lung; above 79.4 µM with NCI-H226 lung; above 100 µM in the test with 786-0 renal; above 100 µM in the test on COLO 205 colon; above 100 µM with U251 CNS; above 100 µM with NCI-H522 lung. Also, the total growth inhibition concentration (TGI) in the test on KM12 colon was 51 µM; with HOP-92 NSCLC, above 100 µM.

Consider `CC(C)(C)c1cc(C(=O)/C=C/C=C/c2ccccc2)cc(C(C)(C)C)c1O`, for which the TGI in the test on MALME-3M melanoma is above 100 µM; in the test with ACHN renal, above 100 µM; in the test with PC-3 prostate, above 79.9 µM; in the test on HCT-15 colon, above 67.1 µM; in the test on SR leukemia, 13.4 µM; in the test on BT-549 breast it was 57.2 µM. The total growth inhibition concentration (TGI) with NCI-H23 lung was above 100 µM; in the test on NCI-H226 lung, 77.2 µM; with 786-0 renal, 36.1 µM; in the test on COLO 205 colon, 34.9 µM; with U251 CNS, 33.5 µM; with NCI-H522 lung, 52.5 µM. Moreover, the figures for the TGI in the test with KM12 colon and in the test with HOP-92 NSCLC were above 92.7 µM and above 100 µM, respectively.

For the compound `C[C@H]1C2Cc3cc(N)ccc3[C@@]1(C)CCN2CCc1ccccc1`, the TGI in the test with MALME-3M melanoma is 54 µM; with ACHN renal, above 100 µM; with PC-3 prostate, 49.9 µM; with HCT-15 colon it was above 100 µM; in the test with SR leukemia it was above 100 µM; in the test on BT-549 breast it was above 100 µM. The TGI in the test on NCI-H23 lung is above 100 µM; in the test with NCI-H226 lung, above 100 µM; in the test on 786-0 renal, above 100 µM; in the test on COLO 205 colon it was 32.9 µM; with U251 CNS, above 100 µM; in the test with NCI-H522 lung it was 31.5 µM. For the same compound, the TGI with KM12 colon was above 100 µM; in the test on HOP-92 NSCLC, 90.9 µM.

Turning to `O=[N+]([O-])c1ccc(S(=O)(=O)N=Ic2ccccc2)cc1`, the TGI in the test on MALME-3M melanoma, with ACHN renal, in the test on PC-3 prostate, with HCT-15 colon, with SR leukemia and with BT-549 breast was above 100 µM in each case. Besides, the concentration for total growth inhibition (TGI) with NCI-H23 lung, with NCI-H226 lung, in the test with 786-0 renal, in the test with COLO 205 colon, in the test with U251 CNS and with NCI-H522 lung was above 100 µM throughout. In addition, the TGI in the test on KM12 colon and with HOP-92 NSCLC was above 100 µM throughout.

On to `S=c1[nH]n2c(COc3cccc(OCc4nnc5sc(=S)[nH]n45)c3)nnc2s1`, for which the TGI in the test with MALME-3M melanoma, with ACHN renal, with PC-3 prostate, with HCT-15 colon, in the test on SR leukemia and with BT-549 breast was above 100 µM each time. In addition, the TGI with NCI-H23 lung, with NCI-H226 lung, in the test with 786-0 renal, in the test with COLO 205 colon, in the test with U251 CNS and in the test with NCI-H522 lung was above 100 µM each time. Besides, the TGI in the test with KM12 colon and in the test on HOP-92 NSCLC was above 100 µM throughout.
